“Also recorded” adds a separate entry of the source. Read-outs that look alike come from different tables or passages of the source.
Tests used:
[1] = tested on: MEF (mouse embryonic fibroblast) feeder cells; assay: Background staining in negative control cells (MEFs, fibroblasts); type: cell-based
Experimental: (§1) Here, two test alkaline phosphate substrates, Fluorescein diphosphate-AM ester (FDP-AM) and DDAOP-AM ester were tested for live staining on pluripotent stem cells like H9 ESCs cultured on MEF (mouse embryonic fibroblast) feeder cells. H9 ESCs and other stem cells expressed high alkaline phosphatase. Negative control cells were MEFs and human dermal fibroblasts which express far lower levels of alkaline phosphatase.
(§2) A 10 mM substrate master stock solution (1000×) of fluorescein diphosphate-AM ester (FDP-AM) or DDAOP-AM was prepared (for FDP-AM for e.g., by adding 512.5 μL of tissue culture grade DMSO to 4 mg of the compound (MW: 780.52)).
(§3) Then, 100 μL of 10 mM FDP-AM or DDAOP-AM solution was diluted into 900 μL of DMEM to make 1 mM working stock; or 10 μM working stock was prepared by diluting 10 μl to 10 ml with 100 mM Tris-HCl pH 8.2 or DMEM basal media; or 1 μM working stock was prepared by diluting 10 μL of 1 mM working stock in 10 ml of DMEM, which was used.
(§4) The AP (alkaline phosphatase) live compound with concentrations ranging: >1 μM, 5 μM, 10 μM, 50 μM, 100 μM, and 200 μM, was made by adding 1, 5, 10, 50, 100 and 200 μL of 1 mM FDP-AM or DDAOP-AM working stock. Similarly, the AP live compounds with concentrations ranging: >20 nM, 50 nM, 100 nM, 250 nM, 500 nM, and 800 nM, was made by adding 2, 5, […], 25, 50 and 80 μL of 1 μM FDP-AM working stock. The first dilution was added to an empty plate (no seeded cells) containing DMEM. The final concentration of the substrates, on the cells, were as follows: 50-200 nM for FDP-AM, and 50-200 μM for DDAOP-AM.
(§5) Incubation times were then determined, beginning with 90 seconds. Where no FITC expression was detected, expression was continued for up to 30 minutes. Levamisole was added to the wash buffer to quench the reaction. This step is whoever optional and not necessary. The samples were rinsed with DMEM and visualized.

mouse ESCs = assay: Live staining of mouse ESCs on MEF feeders; type: cell-based; settings: 200 nM, 30 min
Text: Alkaline phosphatase is not specific just for human ESCs but also for murine ESCs. […] The fluorescent signal is robust and visible at lower 5× magnification [FIG. 7].

H9 ESCs = assay: Live staining of H9 ESCs cultured on MEF feeders with alkaline phosphatase substrates; type: cell-based, human; settings: for concentration range of fluorescence: FIG. 1; for concentration at which robust staining of ESC colonies was achieved: FIG. 2
Experimental: as §1, §2, §3, §4, §5

[2] = tested on: differentiating osteoblasts versus AdSCs; assay: Staining of adipose derived mesenchymal stem cells and derived osteoblasts; type: cell-based; settings: FIG. 8
Text: Alkaline phosphatase is also expressed at high levels in differentiating osteoblasts and mature osteocytes.

Compound | background staining in negative control MEFs [1] | background in MEF feeder cells of mESC culture (mouse ESCs) | staining of mESC colonies (mouse ESCs) | staining of ESC colonies (H9 ESCs) | time for substrate to diffuse out of the ESC (H9 ESCs) | viability of cells after the substrate diffuses out (H9 ESCs) | proliferation of stained cells after removal of the substrate (H9 ESCs; 100-200 nM, 30 minutes) | concentration range of fluorescence (H9 ESCs) | concentration at which robust staining of ESC colonies was achieved (H9 ESCs) [µM] | cell-specific marker expression of stained cells (H9 ESCs; after staining and removal of the substrate) | re-staining with a second exposure the following day (H9 ESCs; after washing, culturing overnight, 30 min exposure) | removal of fluorescent stain from stained cells (H9 ESCs; media with substrate replaced with fresh ESC culture media) | specificity of staining of osteoblasts versus parent AdSC/MSC [2] | background staining in negative control MEFs ([1]; listed as DDAO-AM) | morphology of stained ESCs (H9 ESCs) | effect on viability or morphology of stained cells (H9 ESCs)
CC(=O)OCOP(=O)(OCOC(C)=O)Oc1ccc2c(c1)Oc1cc(OP(=O)(OCOC(C)=O)OCOC(C)=O)ccc1C21OC(=O)c2ccccc21 [FDP-AM, Fluorescein diphosphate-AM ester] | minimal background | minimal background staining; also recorded: little or no background | specially stains mESC; also recorded: robust staining | successful staining; also recorded: robust staining | within two hours | viable overnight | continue to proliferate even after removal of the substrate | nanomolecular range | 0.2 | retain their cell-specific marker expression; also recorded: retained their marker expression | successfully re-stained | completely removed | specific staining of differentiating osteoblasts with minimal background in its parental undifferentiated MSC; also recorded: specific staining for the differentiated phenotype (osteoblast) but not in AdSCs |  |  | 
CC(=O)OCOP(=O)(OCOC(C)=O)Oc1ccc2c(c1)C(C)(C)C1=C(Cl)C(=O)C(Cl)=CC1=N2 [DDAOP-AM, DDAO phosphate-AM ester] | high background expression |  |  |  |  |  |  | micomolar range | 200 |  |  |  | failed to show specific staining; also recorded: does not show specific staining | higher background in negative control cells | altered morphology | 
O=C1OC2(c3ccc(O)cc3Oc3cc(O)ccc32)c2ccccc21 [fluorescein] |  |  |  |  |  |  |  |  |  |  |  |  |  |  |  | does not affect the viability or morphology

Reference: patent US9334523B2, “Substrates and methods for staining live stem cells” (LIFE TECHNOLOGIES CORPORATION, priority 2011, dated 2016)
